Results on 18 compounds are retold here after PubChem BioAssay AID330 (DTP/NCI, 2004).

Values joined by “and” are separate entries in the source; they are usually repeats but may differ in a detail not shown here. Identical values can stand only once. Inconclusive results and toxic doses are left out.

For the assay, the system named is P388 leukemia ip, CD2F1 mice, survival T/C. The assay is described as follows: NCI In Vivo Anticancer Drug Screen. Data for tumor model P388 Leukemia (intraperitoneal) in CD2F1 (CDF1) mice. Conditions: endpoint: median survival time, higher = longer survival. The gist of the method: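 Mice carrying the transplanted tumor received test compound or vehicle. Survival was recorded in each group, and the value is the treated-group measurement divided by that of the vehicle-treated control group.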

Where [1] appears, read: dose: 100.0 mg/kg/injection, schedule: Q01DX005 (ip), vehicle: saline with Tween-80.
The mark [2] stands for this setting: dose: 200.0 mg/kg/injection, schedule: Q01DX005 (ip), vehicle: saline with Tween-80.
Setting [3] is: dose: 25.0 mg/kg/injection, schedule: Q01DX005 (ip), vehicle: Klucel (hydroxypropylcellulose) (HPC).
Setting [4] is: dose: 50.0 mg/kg/injection, schedule: Q01DX005 (ip), vehicle: Klucel (hydroxypropylcellulose) (HPC).
Where [5] appears, read: dose: 100.0 mg/kg/injection, schedule: Q01DX005 (ip), vehicle: Klucel (hydroxypropylcellulose) (HPC).
Setting [6] is: dose: 60.0 mg/kg/injection, schedule: Q01DX005 (ip), vehicle: Klucel (hydroxypropylcellulose) (HPC).
[7] abbreviates: dose: 120.0 mg/kg/injection, schedule: Q01DX005 (ip), vehicle: Klucel (hydroxypropylcellulose) (HPC).
[8] abbreviates: dose: 50.0 mg/kg/injection, schedule: Q01DX009 (ip), vehicle: Klucel (hydroxypropylcellulose) (HPC).
Setting [9] is: dose: 100.0 mg/kg/injection, schedule: Q04DX002 (ip), vehicle: saline with Tween-80.
Setting [10] is: dose: 200.0 mg/kg/injection, schedule: Q04DX002 (ip), vehicle: saline with Tween-80.
[11] abbreviates: dose: 12.5 mg/kg/injection, schedule: Q01DX009 (ip), vehicle: Klucel (hydroxypropylcellulose) (HPC).
Setting [12] is: dose: 25.0 mg/kg/injection, schedule: Q01DX009 (ip), vehicle: Klucel (hydroxypropylcellulose) (HPC).

On to `Oc1ccc2ccccc2c1/C=N/NC(=S)N/N=C/c1c(O)ccc2ccccc12`, for which the T/C was 97 % of control (dose: 0.38 mg/kg/injection, schedule: Q01DX005 (ip), vehicle: saline with Tween-80); 97 % of control (dose: 0.75 mg/kg/injection, schedule: Q01DX005 (ip), vehicle: saline with Tween-80); 90 % of control and 92 % of control (dose: 1.5 mg/kg/injection, schedule: Q01DX005 (ip), vehicle: saline with Tween-80); 86 % of control (dose: 6.0 mg/kg/injection, schedule: Q01DX005 (ip), vehicle: saline with Tween-80); 96 % of control under setting [1]; 116 % of control under setting [2].
As for `CN=C(NC#N)NCCSCc1nc[nH]c1C`, the T/C by setting is: under setting [3], 102 % of control; under setting [4], 93 % of control; under setting [5], 93 % of control; (dose: 200.0 mg/kg/injection, schedule: Q01DX005 (ip), vehicle: Klucel (hydroxypropylcellulose) (HPC)) 102 % of control; (dose: 400.0 mg/kg/injection, schedule: Q01DX005 (ip), vehicle: Klucel (hydroxypropylcellulose) (HPC)) 93 % of control.
In the case of `N#CC1CCN(Cc2ccccc2)C(C#N)C1` (stereo not drawn), the T/C by setting is: (dose: 15.0 mg/kg/injection, schedule: Q01DX005 (ip), vehicle: Klucel (hydroxypropylcellulose) (HPC)) 105 % of control; (dose: 30.0 mg/kg/injection, schedule: Q01DX005 (ip), vehicle: Klucel (hydroxypropylcellulose) (HPC)) 106 % of control; under setting [6], 102 % of control and 106 % of control.
In the case of `CC1(C)OC(=O)C(=CN(C2CCCCC2)C2CCCCC2)C(=O)O1`, the T/C was 96 % of control under setting [6] and 86 % of control under setting [7].
Consider `O=C1C(O)=C(O)C(=O)c2ccccc21`, for which the T/C under setting [8] is 90 % of control.
For `O=C(c1ccccc1)c1cnc2nc(-c3ccccc3)c(-c3ccccc3)nn12`, the T/C reads like this: (dose: 12.5 mg/kg/injection, schedule: Q01DX005 (ip), vehicle: saline with Tween-80) 89 % of control; (dose: 25.0 mg/kg/injection, schedule: Q01DX005 (ip), vehicle: saline with Tween-80) 90 % of control; (dose: 50.0 mg/kg/injection, schedule: Q01DX005 (ip), vehicle: saline with Tween-80) 93 % of control and 94 % of control; under setting [1], 101 % of control; under setting [2], 102 % of control.
On to `CC1CCC(O)C23OC4C(OC(C)(C)C4C12C)C3=O` (stereo not drawn) (tested in a mixture with another compound), for which the T/C was 96 % of control (dose: 50.0 mg/kg/injection, schedule: Q01DX009 (ip), vehicle: saline); 89 % of control (dose: 100.0 mg/kg/injection, schedule: Q01DX009 (ip), vehicle: saline); 94 % of control (dose: 200.0 mg/kg/injection, schedule: Q01DX009 (ip), vehicle: saline).
As for `C/C=C/c1cc2n(c1)C(=O)c1cc(OC3OC(C)C(NC)C(C)(O)C3O)c(C)c(O)c1NC2O` (stereo not drawn), the T/C was 94 % of control (dose: 0.02 mg/kg/injection, schedule: Q04DX003 (ip), vehicle: saline); 89 % of control (dose: 0.04 mg/kg/injection, schedule: Q04DX003 (ip), vehicle: saline); 110 % of control (dose: 0.3 micrograms/kg/injection, schedule: Q03DX003 (ip), vehicle: DMSO); 120 % of control (dose: 1.0 micrograms/kg/injection, schedule: Q01DX001 (ip), vehicle: DMSO); 100 % of control (dose: 1.0 micrograms/kg/injection, schedule: Q01DX009 (ip), vehicle: saline); 117 % of control (dose: 4.0 micrograms/kg/injection, schedule: Q01DX009 (ip), vehicle: saline). The T/C by setting is: (dose: 4.0 micrograms/kg/injection, schedule: Q04DX003 (ip), vehicle: DMSO) 120 % of control; (dose: 16.0 micrograms/kg/injection, schedule: Q01DX001 (ip), vehicle: DMSO) 173 % of control; (dose: 16.0 micrograms/kg/injection, schedule: Q03DX003 (ip), vehicle: DMSO) 180 % of control; (dose: 16.0 micrograms/kg/injection, schedule: Q04DX003 (ip), vehicle: DMSO) 123 % of control; (dose: 32.0 micrograms/kg/injection, schedule: Q01DX001 (ip), vehicle: DMSO) 95 % of control.
Consider `[Cu+2].[O-]/C(=N\N=C\c1ccccn1)c1ccc(Cl)cc1.[O-]/C(=N\N=C\c1ccccn1)c1ccc(Cl)cc1`, for which the T/C runs as follows: (dose: 50.0 mg/kg/injection, schedule: Q04DX002 (ip), vehicle: saline with Tween-80) 90 % of control; under setting [9], 93 % of control; under setting [10], 90 % of control.
With `O=C(O)CCCSC(=S)c1ccccc1`, the T/C under setting [11] was 102 % of control; the T/C under setting [12] is 100 % of control; the T/C under setting [8] was 98 % of control and 105 % of control; the T/C (dose: 200.0 mg/kg/injection, schedule: Q01DX009 (ip), vehicle: Klucel (hydroxypropylcellulose) (HPC)) was 101 % of control.
Take `CSc1nnc(CCC(=O)Nc2cc(Cl)c(Cl)cc2Cl)o1`: the T/C runs as follows: (dose: 60.0 mg/kg/injection, schedule: Q01DX005 (ip), vehicle: saline with Tween-80) 106 % of control; (dose: 120.0 mg/kg/injection, schedule: Q01DX005 (ip), vehicle: saline with Tween-80) 105 % of control; (dose: 240.0 mg/kg/injection, schedule: Q01DX005 (ip), vehicle: saline with Tween-80) 98 % of control.
With `CCCCCCCCCCCC[N+](C)(C)C` (tested in a mixture with another compound), the T/C by setting is: (dose: 6.25 mg/kg/injection, schedule: Q01DX009 (ip), vehicle: Klucel (hydroxypropylcellulose) (HPC)) 113 % of control; under setting [11], 114 % of control; under setting [12], 114 % of control.
For `O=C1c2ccccc2C(=O)N1CCCC[P+](c1ccccc1)(c1ccccc1)c1ccccc1`, the T/C was 112 % of control (dose: 1.5 mg/kg/injection, schedule: Q01DX009 (ip), vehicle: other); 116 % of control (dose: 3.0 mg/kg/injection, schedule: Q01DX009 (ip), vehicle: other); 116 % of control (dose: 6.0 mg/kg/injection, schedule: Q01DX009 (ip), vehicle: other); 121 % of control (dose: 9.0 mg/kg/injection, schedule: Q01DX009 (ip), vehicle: other).
Consider `CS(=O)(=O)Nc1nc2ccccc2c(=O)o1`, for which the T/C reads like this: under setting [6], 107 % of control; under setting [7], 102 % of control; (dose: 240.0 mg/kg/injection, schedule: Q01DX005 (ip), vehicle: Klucel (hydroxypropylcellulose) (HPC)) 99 % of control.
On to `CCCCCNCC(=O)ON1CCCC1C(=O)NC(Cc1ccccc1)C(=O)NC(CC(C)C)C(=O)O` (stereo not drawn), for which the T/C is 104 % of control under setting [9]; 101 % of control under setting [10]; 101 % of control (dose: 400.0 mg/kg/injection, schedule: Q04DX002 (ip), vehicle: saline with Tween-80).
With `CC(=O)OCC1OC2OC(C)(OC(C)C)OC2C(OC(C)=O)C1OC(C)=O` (stereo not drawn), the T/C by setting is: (dose: 4.0 mg/kg/injection, schedule: Q01DX009 (ip), vehicle: water) 106 % of control; (dose: 8.0 mg/kg/injection, schedule: Q01DX009 (ip), vehicle: water) 102 % of control; (dose: 16.0 mg/kg/injection, schedule: Q01DX009 (ip), vehicle: water) 100 % of control; (dose: 32.0 mg/kg/injection, schedule: Q01DX009 (ip), vehicle: water) 99 % of control; (dose: 50.0 mg/kg/injection, schedule: Q01DX009 (ip), vehicle: other) 108 % of control; (dose: 64.0 mg/kg/injection, schedule: Q01DX009 (ip), vehicle: water) 98 % of control. Besides, the T/C by setting is: (dose: 100.0 mg/kg/injection, schedule: Q01DX009 (ip), vehicle: other) 108 % of control; (dose: 200.0 mg/kg/injection, schedule: Q01DX009 (ip), vehicle: other) 102 % of control; (dose: 400.0 mg/kg/injection, schedule: Q01DX009 (ip), vehicle: other) 102 % of control.
As for `CC1(C)CC2([Si](C)(C)C)C(=O)NC(=O)NC12` (stereo not drawn), the T/C runs as follows: (dose: 12.5 mg/kg/injection, schedule: Q01DX005 (ip), vehicle: Klucel (hydroxypropylcellulose) (HPC)) 105 % of control; under setting [3], 99 % of control; under setting [4], 99 % of control; under setting [5], 97 % of control.
Consider `N=C(N)c1ccc2[nH]c(/C=C/c3cc4ccc(C(=N)N)cc4o3)cc2c1`, for which the T/C (dose: 100.0 mg/kg/injection, schedule: Q04DX003 (ip), vehicle: suspension in saline) is 170 % of control.
